In brackets after ≈: the same amount, converted by molar mass. Where two headings read alike, the source gives them in different places. Values belong to the compound of their own block, whether it stands above or below them.
Tests used:
Pseudomonas Strain 08131 = experiment: Etest, Pseudomonas Strain 08131; assay type: cell-based; details: Pseudomonas, STRAIN08131, Strain 08131, read-out: MIC
Text: (§1) The corresponding tests are made based on the usual MIC test: the Etest® (Biomerieux) strip is deposited onto the surface of a seeded agar medium in which the booster has been incorporated. This test enables solvent effect risks, that is a possible interaction with the solvent used in vitro, to be minimised.
(§2) The control corresponds to the test made without cineol. A control is made in each solvent tested: distilled water, Tween/water and DMSO.
(§3) ED control=antibiotic alone in distilled water
(§4) DMSO control=antibiotic alone in DMSO
(§5) TE control=antibiotic alone in Tween® 80

Pseudomonas Strain 08132 = experiment: Etest, Pseudomonas Strain 08132; assay type: cell-based
Text: as §1, §2, §3, §4, §5

MSSA 8237 = experiment: Etest, staphylococci MSSA 8237; assay type: cell-based; details: MSSA 8237
Text: as §1, §2, §3, §4, §5

[1] = system: Strain 09003, methicillin resistant S. aureus (MRSA); experiment: Resistance test (resistant mutants), Strain 09003; assay type: cell-based; details: Strain 09003, DMSO, 4 times the MIC, 48 h incubation, combinations 64/100
Experimental: (§6) After 48 h incubation, the presence or absence of colonies likely to be resistant mutants is observed.
(§7) ED control or DMSO=only distilled water or DMSO is added
(§8) Ciprofloxacine DMSO: addition of Ciprofloxacine in DMSO

[2] = system: Strain 10168, methicillin resistant S. aureus (MRSA); experiment: Resistance test (resistant mutants), Strain 10168; assay type: cell-based; details: Strain 10168, DMSO, 4 times the MIC, 48 h incubation, combinations 64/100
Experimental: as §6, §7, §8

E. Coli Strain 08138 = experiment: Etest, E. Coli Strain 08138; assay type: cell-based; details: Escherichia coli, Strain 08138
Text: as §1, §2, §3, §4, §5

E. Coli Strain 8150 = experiment: Etest, E. Coli Strain 8150; assay type: cell-based; details: Escherichia coli, Strain 8150
Text: as §1, §2, §3, §4, §5

MRSA 10178 = experiment: Etest, staphylococci MRSA 10178; assay type: cell-based
Text: as §1, §2, §3, §4, §5

Staphylococcus = experiment: MIC measurement in agar medium (dilution test), Staph; assay type: cell-based; details: Staphylococcus, read-out: MIC of the amox alone; staphylococci
Text: Inhibitory minimum concentration measurement tests are made in a solid agar medium according to international standards in force (CLSI M7-A9 Jan 12 standards): dispersion of the compounds to be tested in a Mueller Hinton gelose. An adaptation relating to the hydrophobicity of compounds and compositions is however necessary to disperse them in the medium: dilution of the compounds in a solvent. The compounds and compositions incorporated in the agar medium can be diluted beforehand in one or more solvents (Tween® 80 diluted with water, Tween® 80 diluted with […], DMSO diluted with water). The strains are deposited onto the agar surface with a steers apparatus. In the examples, different dissolution methods for products are tested in parallel to circumvent the problems of water/solvent distribution coefficient of the molecules (antimicrobial and potentiator) whereas the bacteria grow only in the aqueous phase. The technical requirement will not intervene in in vivo tests. The same dilution methods can be implemented in a liquid medium (microplates and tubes). The same methodology is implemented with fungi. […] MIC measurement: the minimum inhibitory concentration measurement tests are made in an agar solid medium according to international standards in force (CLSI standards), according to the previously defined protocol. […] The booster contribution as compared with the MIC of the antibiotic alone is expressed in a (MIC ATB)/(MIC ATB+booster) ratio. Thereby, gains are defined: […]

candidas = experiment: MIC measurement (dilution test) on yeast strains; assay type: cell-based, Candida; details: Candida; read-out: MIC of sertaconazole alone
Text: Inhibitory minimum concentration measurement tests are made in a solid agar medium according to international standards in force (CLSI M7-A9 Jan 12 standards): dispersion of the compounds to be tested in a Mueller Hinton gelose. An adaptation relating to the hydrophobicity of compounds and compositions is however necessary to disperse them in the medium: dilution of the compounds in a solvent. The compounds and compositions incorporated in the agar medium can be diluted beforehand in one or more solvents (Tween® 80 diluted with water, Tween® 80 diluted with […], DMSO diluted with water). The strains are deposited onto the agar surface with a steers apparatus. In the examples, different dissolution methods for products are tested in parallel to circumvent the problems of water/solvent distribution coefficient of the molecules (antimicrobial and potentiator) whereas the bacteria grow only in the aqueous phase. The technical requirement will not intervene in in vivo tests. The same dilution methods can be implemented in a liquid medium (microplates and tubes). The same methodology is implemented with fungi. […] MIC measurement: the minimum inhibitory concentration measurement tests are made in an agar solid medium according to international standards in force (CLSI standards), according to the previously defined protocol. […] The booster contribution as compared with the MIC of the antibiotic alone is expressed in a (MIC ATB)/(MIC ATB+booster) ratio. Thereby, gains are defined: […] The yeast strains tested (n=33) belong to the […] albicans, Candida tropicalis, Candida krusei, Candida parapsilosis, Candida glabrata species.

[3] = orally, cats; cited from earlier work
[4] = orally, rats; cited from earlier work
[5] = DMSO control = antibiotic alone in DMSO
[6] = ED control = antibiotic alone in distilled water
[7] = Tween water control = antibiotic alone
[8] = Staphylococcus aureus, MSSA, DMSO control = antibiotic alone in DMSO, read-out: MIC
[9] = Staphylococcus aureus, MSSA, ED control = antibiotic alone in distilled water, read-out: MIC
[10] = Staphylococcus aureus, MSSA, Tween water control = antibiotic alone, read-out: MIC

Compound: C[C@@H](O)[C@H]1C(=O)N2C(C(=O)O)=C(S[C@@H]3CN[C@H](C(=O)N(C)C)C3)[C@H](C)[C@H]12 [Meropenem, reference compound]
MIC (Pseudomonas Strain 08131; [5]): 2 µg/mL (≈ 5.22 µM) | MIC (Pseudomonas Strain 08131; [6]): 1.5 µg/mL (≈ 3.91 µM) | MIC (Pseudomonas Strain 08131; [7]): 2 µg/mL (≈ 5.22 µM) | MIC (Pseudomonas Strain 08132; [5]): 12 µg/mL (≈ 31.3 µM) | MIC (Pseudomonas Strain 08132; Pseudomonas, STRAIN08132, ED control = antibiotic alone in distilled water, read-out: MIC): 12 µg/mL (≈ 31.3 µM) | MIC (Pseudomonas Strain 08132; [7]): 12 µg/mL (≈ 31.3 µM) | MIC (MSSA 8237; [8]): 0.25 µg/mL (≈ 0.652 µM) | MIC (MSSA 8237; [9]): 0.19 µg/mL (≈ 0.495 µM) | MIC (MSSA 8237; [10]): 0.25 µg/mL (≈ 0.652 µM)

Compound: O=C(O)c1cn(C2CC2)c2cc(N3CCNCC3)c(F)cc2c1=O [Ciprofloxacine, ciprofloxacine, reference compound]
colonies likely to be resistant mutants [1]: numerous | colonies likely to be resistant mutants ([1]; listed as ciprofloxacine): many mutants | colonies likely to be resistant mutants [2]: invaded | colonies likely to be resistant mutants ([2]; listed as ciprofloxacine): many mutants

Compound: CN(C)c1cc(NC(=O)CNC(C)(C)C)c(O)c2c1C[C@H]1C[C@H]3[C@H](N(C)C)C(O)=C(C(N)=O)C(=O)[C@@]3(O)C(O)=C1C2=O [Tigecycline, reference compound]
MIC (E. Coli Strain 08138; [5]): 0.38 µg/mL (≈ 0.649 µM) | MIC (E. Coli Strain 08138; [6]): 0.38 µg/mL (≈ 0.649 µM) | MIC (E. Coli Strain 08138; [7]): 0.38 µg/mL (≈ 0.649 µM) | MIC (E. Coli Strain 8150; [5]): 0.19 µg/mL (≈ 0.324 µM) | MIC (E. Coli Strain 8150; [6]): 0.125 µg/mL (≈ 0.213 µM) | MIC (E. Coli Strain 8150; [7]): 0.125 µg/mL (≈ 0.213 µM) | MIC (MRSA 10178; MRSA 10178, ED control = antibiotic alone in distilled water): 0.125 µg/mL (≈ 0.213 µM) | MIC (MRSA 10178; MRSA 10178, Tween water control = antibiotic alone): 0.125 µg/mL (≈ 0.213 µM) | MIC (MRSA 10178; Staphylococcus aureus, MRSA): 0.125 µg/mL (≈ 0.213 µM)

Compound: Clc1ccc(C(Cn2ccnc2)OCc2csc3c(Cl)cccc23)c(Cl)c1 (centres unmarked) [sertaconazole, reference compound]
MIC (candidas): 0.06 to 16 µg/mL

Compound: Cc1ccc(C(C)C)cc1O [carvacrol]
lowest lethal dose [3]: 100 mg/kg | lowest lethal dose [4]: 100 mg/kg

Further lines, results first:

MIC (MSSA 8237; [5]): 1.5 µg/mL (≈ 4.49 µM) | MIC (MSSA 8237; [6]): 1 µg/mL (≈ 2.99 µM) | MIC (MSSA 8237; [7]): 0.5 µg/mL (≈ 1.5 µM)
Compound: CC1(C)S[C@@H]2[C@H](NC(=O)Cc3ccccc3)C(=O)N2[C@H]1C(=O)O [Penicillin G, reference compound]

MIC (Staphylococcus): 0.25 to 32 µg/mL
Compound: CC1(C)S[C@@H]2[C@H](NC(=O)[C@H](N)c3ccc(O)cc3)C(=O)N2[C@H]1C(=O)O [amox, amoxicillin, reference compound]

MIC (MRSA 10178; Staphylococcus aureus, MRSA, MRSA 10178, DMSO control = antibiotic alone in DMSO, read-out: MIC): 6 µg/mL (≈ 14 µM) | MIC (MRSA 10178; Staphylococcus aureus, MRSA, MRSA 10178, ED control = antibiotic alone in distilled water, read-out: MIC): 6 µg/mL (≈ 14 µM) | MIC (MRSA 10178; Staphylococcus aureus, MRSA, MRSA 10178, Tween water control = antibiotic alone, read-out: MIC): 4 µg/mL (≈ 9.36 µM) | MIC (MSSA 8237; [8]): 6 µg/mL (≈ 14 µM) | MIC (MSSA 8237; [9]): 6 µg/mL (≈ 14 µM) | MIC (MSSA 8237; [10]): 6 µg/mL (≈ 14 µM)
Compound: CO[C@@]1(NC(=O)Cc2cccs2)C(=O)N2C(C(=O)O)=C(COC(N)=O)CS[C@@H]21 [Cefoxitine, reference compound]

Source: patent US10758620B2, “Potentiated antimicrobial agents” (SEPTEOS, priority 2014, dated 2020)
